# Source: ChEMBL document CHEMBL5244278, “Bioisosteres of the Phenyl Ring: Recent Strategic Applications in Lead Optimization and Drug Design” (J Med Chem, 2021)
# Assays:
# [1] = Solubility of the compound; type: physicochemical
# [2] = Prodrug conversion in rat plasma assessed as esterase mediated intermediate formation by measuring half life; type: ADME, cell-free
# [3] = Prodrug conversion in rat plasma assessed as formation of Isavuconazole from intermediate by measuring half life; type: ADME, cell-free
# [4] = physchem; settings: buffer, pH 7.4
# [5] = test system: Hepatitis C virus; assay: microbe, parasite or virus in culture; settings: GT1b-genotype
# [6] = molecular target: Beta-2 adrenergic receptor (Bos taurus, UniProt Q28044); assay: Antagonist activity at bovine lung membrane adrenergic beta-2 receptor; type: cell membranes
# Chain of Beta-2 adrenergic receptor (Q28044 whole entry): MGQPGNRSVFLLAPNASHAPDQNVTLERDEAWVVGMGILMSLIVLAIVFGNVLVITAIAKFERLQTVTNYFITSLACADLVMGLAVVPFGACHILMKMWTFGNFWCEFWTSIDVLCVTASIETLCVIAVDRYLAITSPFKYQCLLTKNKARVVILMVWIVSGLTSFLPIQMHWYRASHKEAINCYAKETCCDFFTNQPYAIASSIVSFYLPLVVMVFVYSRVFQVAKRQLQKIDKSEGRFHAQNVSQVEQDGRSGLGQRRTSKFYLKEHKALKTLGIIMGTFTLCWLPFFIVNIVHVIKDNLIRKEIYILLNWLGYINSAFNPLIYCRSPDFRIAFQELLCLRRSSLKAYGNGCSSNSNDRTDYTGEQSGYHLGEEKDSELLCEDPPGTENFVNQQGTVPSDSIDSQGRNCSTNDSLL
# [7] = molecular target: Beta-1 adrenergic receptor (Rattus norvegicus, UniProt P18090)
# Chain of Beta-1 adrenergic receptor (P18090 whole entry): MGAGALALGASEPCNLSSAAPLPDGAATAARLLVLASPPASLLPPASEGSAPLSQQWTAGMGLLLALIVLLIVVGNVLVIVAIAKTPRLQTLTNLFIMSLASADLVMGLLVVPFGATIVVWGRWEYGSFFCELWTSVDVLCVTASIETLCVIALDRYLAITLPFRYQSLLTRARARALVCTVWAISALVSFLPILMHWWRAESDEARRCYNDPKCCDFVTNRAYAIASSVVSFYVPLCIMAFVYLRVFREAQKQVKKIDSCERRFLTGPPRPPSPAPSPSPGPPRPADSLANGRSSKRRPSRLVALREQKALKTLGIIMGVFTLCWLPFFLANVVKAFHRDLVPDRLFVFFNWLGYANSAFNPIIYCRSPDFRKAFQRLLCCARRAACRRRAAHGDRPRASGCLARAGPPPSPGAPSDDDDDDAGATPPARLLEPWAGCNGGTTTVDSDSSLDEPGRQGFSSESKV
# [8] = Inhibition of LFA-1/ICAM-1 (unknown origin) interaction; set-up: species or system Homo sapiens
# [9] = Dissociation constant, pKa of the compound; type: physicochemical
# [10] = Inhibition of MAPK (unknown origin); set-up: species or system Homo sapiens
# [11] = molecular target: Tyrosine-protein kinase ABL1 (Homo sapiens, UniProt P00519); assay: Inhibition of ABL1 (unknown origin)
# Chain of Tyrosine-protein kinase ABL1 (P00519 whole entry): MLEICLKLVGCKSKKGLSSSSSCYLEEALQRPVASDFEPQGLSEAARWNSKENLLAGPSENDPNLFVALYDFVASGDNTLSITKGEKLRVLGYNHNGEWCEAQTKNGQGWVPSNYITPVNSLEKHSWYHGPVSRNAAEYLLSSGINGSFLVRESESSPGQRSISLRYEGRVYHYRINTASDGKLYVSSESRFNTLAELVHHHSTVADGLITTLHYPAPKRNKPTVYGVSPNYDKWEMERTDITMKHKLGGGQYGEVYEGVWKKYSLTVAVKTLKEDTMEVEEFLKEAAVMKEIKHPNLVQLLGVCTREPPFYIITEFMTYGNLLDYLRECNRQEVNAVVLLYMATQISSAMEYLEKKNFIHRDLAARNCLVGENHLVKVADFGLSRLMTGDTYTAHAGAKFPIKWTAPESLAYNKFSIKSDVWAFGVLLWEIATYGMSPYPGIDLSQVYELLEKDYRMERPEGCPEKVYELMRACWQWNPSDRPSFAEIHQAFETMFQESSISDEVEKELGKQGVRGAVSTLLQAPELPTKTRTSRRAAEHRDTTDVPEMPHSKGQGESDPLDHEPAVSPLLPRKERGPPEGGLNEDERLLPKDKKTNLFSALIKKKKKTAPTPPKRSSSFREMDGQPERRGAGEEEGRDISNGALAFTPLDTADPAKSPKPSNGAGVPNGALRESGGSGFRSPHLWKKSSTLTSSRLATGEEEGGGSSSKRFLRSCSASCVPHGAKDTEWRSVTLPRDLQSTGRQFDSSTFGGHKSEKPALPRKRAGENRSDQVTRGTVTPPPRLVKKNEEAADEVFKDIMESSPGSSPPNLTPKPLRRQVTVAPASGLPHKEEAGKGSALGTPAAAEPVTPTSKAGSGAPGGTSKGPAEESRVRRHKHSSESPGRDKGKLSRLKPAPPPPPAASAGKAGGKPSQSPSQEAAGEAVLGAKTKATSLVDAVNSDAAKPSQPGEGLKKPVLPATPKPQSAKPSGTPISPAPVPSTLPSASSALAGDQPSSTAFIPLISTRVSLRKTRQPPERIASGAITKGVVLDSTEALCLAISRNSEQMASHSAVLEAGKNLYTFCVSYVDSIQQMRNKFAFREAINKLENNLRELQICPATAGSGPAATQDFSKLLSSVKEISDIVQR
# [12] = Metabolic stability in human liver microsomes assessed as parent compound remaining; type: ADME, Microsome
# [13] = Inhibition of WNT (unknown origin) by luciferase reporter assay; set-up: species or system Homo sapiens
# [14] = Solubility of compound at pH 6.8 by RapidFire mass spectrometry; type: physicochemical; settings: buffer
# [15] = Solubility of the compound in FaSSIF at pH 6.8 by RapidFire mass spectrometry; type: ADME; settings: simulated gi fluid
# [16] = Lipophilicity, logD of the compound in 1-octanol and phosphate buffer by tandem mass spectrometer analysis; type: physicochemical; settings: 1-octanol/phosphate buffer
# [17] = Clearance in rat liver microsomes; type: ADME, Microsome
# [18] = molecular target: Cytochrome P450 3A4 (Homo sapiens, UniProt P08684); assay: (§1) Inhibition of CYP3A4 (unknown origin); type: ADME
# Chain of Cytochrome P450 3A4 (P08684 whole entry): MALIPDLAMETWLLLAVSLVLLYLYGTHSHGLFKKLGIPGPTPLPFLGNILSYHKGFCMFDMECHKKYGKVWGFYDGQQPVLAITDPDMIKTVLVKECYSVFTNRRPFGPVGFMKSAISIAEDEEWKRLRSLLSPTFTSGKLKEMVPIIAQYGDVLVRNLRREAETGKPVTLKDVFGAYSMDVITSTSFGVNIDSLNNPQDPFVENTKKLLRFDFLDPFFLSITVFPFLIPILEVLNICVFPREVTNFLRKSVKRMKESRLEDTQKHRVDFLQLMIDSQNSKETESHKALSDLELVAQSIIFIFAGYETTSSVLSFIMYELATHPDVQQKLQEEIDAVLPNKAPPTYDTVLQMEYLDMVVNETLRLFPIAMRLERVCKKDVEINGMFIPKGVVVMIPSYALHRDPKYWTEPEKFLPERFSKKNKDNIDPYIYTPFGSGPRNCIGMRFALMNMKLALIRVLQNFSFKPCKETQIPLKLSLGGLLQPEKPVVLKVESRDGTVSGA
# [19] = molecular target: hERG (KCNH2) (Homo sapiens, UniProt Q12809); assay: Inhibition of hERG channel; type: toxicity; settings: human
# Chain of hERG (KCNH2) (Q12809 whole entry): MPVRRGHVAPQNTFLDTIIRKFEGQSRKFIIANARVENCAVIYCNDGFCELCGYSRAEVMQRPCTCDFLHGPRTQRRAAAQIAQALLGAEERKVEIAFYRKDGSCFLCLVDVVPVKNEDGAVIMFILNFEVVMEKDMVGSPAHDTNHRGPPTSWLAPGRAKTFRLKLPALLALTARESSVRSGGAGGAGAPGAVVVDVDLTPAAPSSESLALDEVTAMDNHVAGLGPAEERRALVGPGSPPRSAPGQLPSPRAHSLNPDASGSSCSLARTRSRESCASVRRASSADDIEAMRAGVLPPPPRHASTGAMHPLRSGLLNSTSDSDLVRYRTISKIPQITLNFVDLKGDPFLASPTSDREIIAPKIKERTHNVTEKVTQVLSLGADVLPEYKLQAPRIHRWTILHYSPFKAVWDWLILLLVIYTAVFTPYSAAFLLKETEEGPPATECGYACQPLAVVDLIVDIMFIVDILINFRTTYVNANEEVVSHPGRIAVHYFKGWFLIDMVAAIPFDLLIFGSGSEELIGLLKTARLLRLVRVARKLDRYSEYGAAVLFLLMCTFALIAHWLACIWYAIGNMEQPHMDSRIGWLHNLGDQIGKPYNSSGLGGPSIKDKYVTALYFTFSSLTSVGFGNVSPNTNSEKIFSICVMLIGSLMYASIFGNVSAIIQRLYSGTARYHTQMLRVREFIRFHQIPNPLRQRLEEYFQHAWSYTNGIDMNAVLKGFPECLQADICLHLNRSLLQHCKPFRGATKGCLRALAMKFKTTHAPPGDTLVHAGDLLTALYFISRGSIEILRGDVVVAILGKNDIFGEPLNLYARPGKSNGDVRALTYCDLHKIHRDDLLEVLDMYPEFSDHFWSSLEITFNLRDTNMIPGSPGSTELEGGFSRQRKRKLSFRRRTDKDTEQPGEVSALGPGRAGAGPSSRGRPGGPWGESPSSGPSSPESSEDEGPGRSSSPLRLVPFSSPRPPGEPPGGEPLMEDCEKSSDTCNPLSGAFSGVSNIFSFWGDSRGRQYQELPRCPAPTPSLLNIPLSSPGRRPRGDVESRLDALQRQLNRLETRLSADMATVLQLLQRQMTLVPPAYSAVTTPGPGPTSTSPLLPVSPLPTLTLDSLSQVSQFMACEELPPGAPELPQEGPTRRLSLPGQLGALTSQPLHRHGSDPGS
# [20] = test system: Trypanosoma cruzi; assay: Antitrypanosomal activity against Trypanosoma cruzi trypomastigotes infected in mouse 3T3 cells assessed as reduction in parasite growth; type: functional, organism-based; settings: NIH3T3
# [21] = Lipophilicity, logD of the compound at pH 7.4; type: physicochemical; settings: buffer
# [22] = Inhibition of human rhinovirus 3C protease; set-up: species or system Human rhinovirus sp.
# [23] = test system: Human rhinovirus sp.; assay: Inhibition of human rhinovirus 3C protease assessed as kobs/[I]
# [24] = Aqueous solubility of compound; type: physicochemical
# [25] = in vitro; settings: human, liver microsomes
# [26] = in vitro; settings: human, Caco-2
# [27] = test system: Influenza A virus; assay: Antiviral activity against Influenza A virus A/PR/8/34 (PR8) strain infected in MDCK cells assessed as reduction in viral infection incubated for 72 hrs by crystal violet staining based assay; type: functional, organism-based
# [28] = molecular target: CYP3A4 (Homo sapiens, UniProt P08684); assay: as §1; type: ADME
# Chain of CYP3A4 (P08684 whole entry): as the sequence (P08684 whole entry) above
structure (smiles),measurement,setting,value
CNCC(=O)OCc1cccnc1N(C)C(=O)OC(C)[n+]1cnn(C[C@](O)(c2cc(F)ccc2F)[C@H](C)c2nc(-c3ccc(C#N)cc3)cs2)c1 (some centres not stated),solubility,[1],> 100000 µg/mL
same,t1/2,[2],< 1 min
same,t1/2,[3],< 1 min
N#Cc1cccc(Br)c1,solubility,[4],637 µg/mL
COC(=O)N[C@@H](C(=O)N1CCC[C@@H]1c1ncc(-c2ccc(-c3cc4oc(-c5cnc([C@H]6CCCN6C(=O)[C@H](NC(=O)OC)C(C)C)[nH]5)cc4s3)cc2)[nH]1)C(C)C,EC50,[5],< 1 nM
CC/C=N/OCC(O)CNC(C)(C)C (configuration not stated),IC50,[6],1550 nM
same,IC50,[7],26300 nM
CC(=O)N1CCN(c2cc(-c3ccc(Sc4ccccc4C(C)C)c(C(F)(F)F)c3)ncn2)CC1,IC50,[8],220 nM
NC12CCC(CC1)CC2,pKa,[9],11
COCCn1c(SC)nc(-c2ccc(F)cc2)c1-c1cccc(NC(=O)CCc2ccc(OC)cc2)c1,IC50,[10],48 nM
same,solubility,[4],0.0473 µg/mL
Cc1ccc(NC(=O)[C@H]2C[C@@H](CN3CCN(C)CC3)C2)cc1Nc1nccc(-c2cccnc2)n1,IC50,[11],> 1000 nM
Cc1ccc(NC(=O)CCCCCN2CCN(C)CC2)cc1Nc1nccc(-c2cccnc2)n1,IC50,[11],> 1000 nM
CC(C)NCC(O)c1ccc(Cl)c(Cl)c1 (configuration not stated) [DICHLOROISOPROTERENOL],IC50,[6],977 nM
same,IC50,[7],115 nM
CC(C)c1ccccc1Sc1ccc(C2CC2C(=O)NCCCN2CCCC2=O)c(Cl)c1Cl (racemic),IC50,[8],7 nM
CN1CCN(c2ccc(Nc3cc(C4CC4)[nH]n3)nc2)CC1,Stability,[12],73%
N#Cc1ccccc1Br,solubility,[4],412 µg/mL
CC(C)(C)c1cccc(C(=O)O)c1,solubility,[4],8080 µg/mL
Cc1cc(-c2ccc(CNC(=O)c3ccc(-c4cnccn4)cc3)cc2)ccn1,EC50,[13],0.7 nM
O=C(Cc1ccc(B2C=CC=CN2)cc1)Nc1cc(C2CC2)[nH]n1,solubility,[14],0.013 µM
same,solubility,[15],0.03 µM
same,logD,[16],3.9
same,CLhep predicted,[17],48 mL/min/kg
same,IC50,[18],> 20000 nM
same,IC50,[19],> 30000 nM
Cc1ccc(NC(=O)C23CC(CN4CCN(C)CC4)(C2)C3)cc1Nc1nccc(-c2cccnc2)n1,IC50,[11],> 1000 nM
same,solubility,[4],2680 µM
O=C(Cn1ccnc1[N+](=O)[O-])NCC1=C/C=C\C=C/C=C\1,EC50,[20],2300 nM
COCCn1c(SC)nc(-c2ccc(F)cc2)c1-c1cccc(NC(=O)CCc2cccc(OC)c2)c1,IC50,[10],93 nM
same,solubility,[4],0.275 µg/mL
CC(=O)N1CCN(c2nc(-c3ccc(Sc4ccccc4C(C)C)c(C(F)(F)F)c3)co2)CC1,IC50,[8],2500 nM
CC(=O)c1ccccc1C(C)(C)C,solubility,[4],12100 µg/mL
O=C(C1[C@@H]2CC[C@@]1(c1ccccc1)C2)N1CCCCC1 (some centres not stated),logD,[21],3.7
same,solubility,[4],492 µM
CCOC(=O)/C=C/[C@H](C[C@@H]1CCNC1=O)NC(=O)[C@H](Cc1ccc(F)c(F)c1)n1cccc(NC(=O)c2cc(C)on2)c1=O,EC50,[22],11 nM
same,Ratio,[23],1.8e+06 M/s
same,solubility,[24],25 µg/mL
same,remaining at 0.5 h,[25],19%
same,Papp A→B,[26],35 ×10⁻⁶ cm/s
CN1CCN(c2ccc(Nc3cc(C4CC4)[nH]n3)cc2)CC1,Stability,[12],92%
Cc1ccc(NC(=O)[C@H]2C[C@H](CN3CCN(C)CC3)C2)cc1Nc1nccc(-c2cccnc2)n1,IC50,[11],> 1000 nM
same,solubility,[4],2000 µM
Cc1cc(-c2ccc(CNC(=O)C34CC(c5cnccn5)(C3)C4)cc2)ccn1,EC50,[13],> 50 nM
O=C(O)/C(O)=C/C(=O)C1CCCCC1,IC50,[27],29400 nM
CNCC(=O)OCc1ccccc1N(C)C(=O)OC(C)[n+]1cnn(C[C@](O)(c2cc(F)ccc2F)[C@H](C)c2nc(-c3ccc(C#N)cc3)cs2)c1 (some centres not stated),solubility,[1],1000 µg/mL
same,t1/2,[2],< 2 min
same,t1/2,[3],13 min
COc1ccccc1N1CCN(CCCCNC(=O)c2ccc(-c3ccccc3)cc2)CC1,solubility,[14],< 0.005 µM
same,solubility,[15],0.021 µM
same,CLhep predicted,[17],51 mL/min/kg
same,IC50,[28],> 20000 nM
